Data from patent EP3277384B1, “SOLID ORAL CARE COMPOSITIONS” (Unilever IP Holdings B.V., priority 2015, dated 2016).

Assay: Approximate solubility of zinc salts
Details: at 25C

For Zinc oxide, the “Approximate Solubility” value was 5 µg/mL.
